In publication PMC12024264, “Frog Skin Peptides Hylin-a1, AR-23, and RV-23: Promising Tools Against Carbapenem-Resistant Escherichia coli and Klebsiella pneumoniae Infections” (Antibiotics, 2025):
In brackets after ≈: the same amount, converted by molar mass. Where two headings read alike, the source gives them in different places.

Tests used:
Assay in all cases: Antibiotic resistance profile of clinical isolate (Table S1)
E. coli 2267 = assay type: cell-based, Escherichia coli
Experimental: (§1) Each strain was grown in Mueller Hinton Broth (MH Broth), and 5 × 10^5 CFU/mL was used to evaluate antibacterial activity. Clinical carbapenem-resistant K. pneumoniae and E. coli isolates were collected at the AOU of Virology and Microbiology of the University of Campania “Luigi Vanvitelli”. […]
(§2) Table S1. Antibiotic resistance profile of K. pneumoniae and E. coli clinical isolates . MIC: Minimum Inhibitory
(§3) Concentration was expressed in µg/mL; S: Sensible; I: Intermediate; R: Resistant.
(§4) Antibiotic Resistance Profile of the Clinical Isolated Bacteria
(§5) Antibiotics MIC (µg/mL) Interpretation […]

E. coli 1376 = assay type: cell-based, Escherichia coli
Experimental: as §1, §2, §3, §4, §5

E. coli 716 = assay type: cell-based, Escherichia coli
Experimental: as §1, §2, §3, §4, §5

E. coli 1441 = assay type: cell-based, Escherichia coli
Experimental: as §1, §2, §3, §4, §5

E. coli 3140 = assay type: cell-based, Escherichia coli
Experimental: as §1, §2, §3, §4, §5

K. pneumoniae 1745 = assay type: cell-based, Klebsiella pneumoniae
Experimental: as §1, §2, §3, §4, §5

K. pneumoniae 311 = assay type: cell-based, Klebsiella pneumoniae
Experimental: as §1, §2, §3, §4, §5

K. pneumoniae 1746 = assay type: cell-based, Klebsiella pneumoniae
Experimental: as §1, §2, §3, §4, §5

K. pneumoniae 1711 = assay type: cell-based, Klebsiella pneumoniae
Experimental: as §1, §2, §3, §4, §5

[1] = Escherichia coli, Table S1, E. coli 2267, read-out: MIC
[2] = Klebsiella pneumoniae, Table S1, K. pneumoniae 1745, read-out: MIC
[3] = Klebsiella pneumoniae, Table S1, K. pneumoniae 1711, read-out: MIC

| Compound | Interpretation (E. coli 2267; Table S1, E. coli 2267) | Interpretation (E. coli 1376; Table S1, E. coli 1376) | MIC (E. coli 1376; Table S1, E. coli 1376) | Interpretation (E. coli 716; Table S1, E. coli 716) | Interpretation (E. coli 1441; Table S1, E. coli 1441) | Interpretation (E. coli 3140; Table S1, E. coli 3140) | Interpretation (K. pneumoniae 1745; Table S1, K. pneumoniae 1745) | MIC (K. pneumoniae 1745; Table S1, K. pneumoniae 1745) | Interpretation (K. pneumoniae 311; Table S1, K. pneumoniae 311) | MIC (K. pneumoniae 311; Table S1, K. pneumoniae 311) | Interpretation (K. pneumoniae 1746; Table S1, K. pneumoniae 1746) | MIC (K. pneumoniae 1746; Table S1, K. pneumoniae 1746) | Interpretation (K. pneumoniae 1711; Table S1, K. pneumoniae 1711) | MIC (K. pneumoniae 1711; Table S1, K. pneumoniae 1711) | MIC (E. coli 1376; Escherichia coli, 1376) | MIC (E. coli 716; Escherichia coli, 716) | MIC (E. coli 1441; Escherichia coli, 1441) | MIC (E. coli 3140; Escherichia coli, 3140) | MIC (K. pneumoniae 311; Klebsiella pneumoniae, 311) | MIC (K. pneumoniae 1746; Klebsiella pneumoniae, 1746) | further results |
| --- | --- | --- | --- | --- | --- | --- | --- | --- | --- | --- | --- | --- | --- | --- | --- | --- | --- | --- | --- | --- | --- |
| Meropenem-vaborbactam | R | R | > 8/8 | R | S | S | R | > 8/8 | S | 4/ 8 | S | ≤ 2/8 | R | > 8/8 | – | – | – | – | – | – | MIC (E. coli 716; Table S1, E. coli 716): > 32/2; MIC (E. coli 1441; Table S1, E. coli 1441): ≤ 2/8; MIC (E. coli 3140; Table S1, E. coli 3140): ≤ 2/8 |
| C[C@@H](O)[C@H]1C(=O)N2C(C(=O)O)=C(S[C@@H]3CN[C@H](C(=O)Nc4cccc(C(=O)O)c4)C3)[C@H](C)[C@H]12 [Ertapenem] | R | R | – | R | R | R | R | – | R | – | R | – | R | – | > 1 mg/L | > 1 mg/L | > 1 mg/L | > 1 mg/L | > 1 mg/L | > 1 mg/L | MIC (E. coli 2267; [1]): > 1 mg/L; MIC (K. pneumoniae 1745; [2]): > 1 mg/L; MIC (K. pneumoniae 1711; [3]): > 1 mg/L |
| Ceftazidime-avibactam | S | S | – | S | S | S | R | > 8/4 | S | 1/ 4 | R | > 8/4 | R | > 8/4 | – | – | – | – | – | – | MIC (E. coli 2267; Table S1, E. coli 2267): 8/4; MIC (E. coli 716; Table S1, E. coli 716): 8/4 |
| Amoxicillin/clavulanate | R | R | > 32/2 | R | R | R | R | > 32/2 | R | > 32/2 | R | > 32/2 | R | > 32/2 | – | – | – | – | – | – | MIC (E. coli 1441; Table S1, E. coli 1441): > 32/2 |
| CO/N=C(\C(=O)N[C@@H]1C(=O)N2C(C(=O)O)=C(CSc3nc(=O)c(=O)[nH]n3C)CS[C@H]12)c1csc(N)n1 [Ceftriaxone] | R | R | – | R | R | S | R | – | R | – | R | – | R | – | > 4 mg/L | > 4 mg/L | > 4 mg/L | ≤ 0.5 mg/L | > 4 mg/L | > 4 mg/L | MIC (E. coli 2267; [1]): > 4 mg/L; MIC (K. pneumoniae 1745; [2]): > 4 mg/L; MIC (K. pneumoniae 1711; [3]): > 4 mg/L |
| CNC(C)C1CCC(N)C(OC2C(N)CC(N)C(OC3OCC(C)(O)C(NC)C3O)C2O)O1 (centres unmarked) [Gentamicin] | S | R | – | S | S | S | R | – | R | – | S | – | R | – | > 4 mg/L | ≤ 1 mg/L | ≤ 1 mg/L | ≤ 1 mg/L | > 4 mg/L | 2 mg/L (≈ 4.19 µM) | MIC (E. coli 2267; Escherichia coli, 2267): ≤ 1 mg/L; MIC (K. pneumoniae 1745; Klebsiella pneumoniae, 1745): > 4 mg/L; MIC (K. pneumoniae 1711; Klebsiella pneumoniae, 1711): > 4 mg/L |
| Ceftolozano tazobactam | R | R | > 4/4 | R | R | R | R | > 4/4 | R | > 4/4 | R | > 4/4 | R | > 4/4 | – | – | – | – | – | – | MIC (E. coli 2267; Table S1, E. coli 2267): > 4/4; MIC (E. coli 716; Table S1, E. coli 716): > 4/4; MIC (E. coli 1441; Table S1, E. coli 1441): > 4/4; MIC (E. coli 3140; Table S1, E. coli 3140): > 4/4 |
| Piperacillin/tazobactam | R | R | > 64/4 | R | R | R | R | > 64/4 | R | > 64/4 | R | 32/4 | R | > 64/4 | – | – | – | – | – | – | MIC (E. coli 2267; Table S1, E. coli 2267): > 64/4; MIC (E. coli 716; Table S1, E. coli 716): > 64/4; MIC (E. coli 1441; Table S1, E. coli 1441): > 64/4; MIC (E. coli 3140; Table S1, E. coli 3140): > 64/4 |
| C[C@H]1COc2c(N3CCN(C)CC3)c(F)cc3c(=O)c(C(=O)O)cn1c23 [Levofloxacin] | R | R | – | R | S | S | R | – | R | – | I | – | R | – | > 1 mg/L | > 1 mg/L | ≤ 0.25 mg/L | ≤ 0.25 mg/L | > 1 mg/L | 1 mg/L (≈ 2.77 µM) | MIC (E. coli 2267; [1]): > 1 mg/L; MIC (K. pneumoniae 1745; [2]): > 1 mg/L; MIC (K. pneumoniae 1711; [3]): > 1 mg/L |
| C[C@@H](O)[C@H]1C(=O)N2C(C(=O)O)=C(SCCN=CN)C[C@H]12 [Imipenem] | R | R | – | R | I | S | R | – | S | – | I | – | R | – | > 8 mg/L | > 8 mg/L | 4 mg/L (≈ 13.4 µM) | 2 mg/L (≈ 6.68 µM) | 2 mg/L (≈ 6.68 µM) | 4 mg/L (≈ 13.4 µM) | MIC (E. coli 2267; [1]): > 8 mg/L; MIC (K. pneumoniae 1745; [2]): > 8 mg/L; MIC (K. pneumoniae 1711; [3]): > 8 mg/L |
